Test results as given in article PMC11259170, “Small-molecule probe for IBD risk variant GPR65 I231L alters cytokine signaling networks through positive allosteric modulation” (Science Advances, 2024).
Converted amounts (≈) assume the structure as drawn. Like-named read-outs stand apart in the source and are kept apart here.

What was measured:
hGPR4-SmBiT = target: T1, hGPR4-SmBiT (Homo sapiens, UniProt P46093); test: Nano-BiT target engagement, LgBiT-mGs recruitment to hGPR4-SmBiT; format: cell-based; conditions: 10 μM
T1 construct: expressed in transfected cells; host or cells: Expi293F (Gibco), transient transfection
Experimental: Target engagement was measured in Expi293F (Gibco, 100044202) cells using the Nano-Glo Live Cell Assay System (Promega, N2011). Nano-BiT plasmids were cloned from GPR65-, GPR4-, and GPR68-Tango plasmids. GPR65-Tango (Addgene plasmid # 66370; http://n2t.net/addgene:66370; RRID:Addgene_66370), GPR4-Tango (Addgene plasmid # 66358; http://n2t.net/addgene:66358; RRID:Addgene_66358), and GPR68-Tango (Addgene plasmid # 66371; http://n2t.net/addgene:66371; RRID:Addgene_66371) were gifts from Bryan Roth. Expi293F cells were transfected 1 day before kinetics with 500 ng of each plasmid using ExpiFectamine 293 Transfection Kit (Gibco, A14525). After 24 hours, cells were collected, washed, and resuspended in room temperature 0.1% PBS-BSA, adjusted to pH 7.4 using 1 M NaOH. Cells were transferred to white opaque 96-well microplates (100 μl per well, PerkinElmer, 6005290), followed by addition of the Nano-Glo Live Cell Reagent (25 μl per well). Baseline luminescence was measured for 10 cycles (1 cycle = 90 s) before adding compounds. All luminescence measurements were made on BMG Labtech PHERAstar FSX. Data analysis was performed using GraphPad Prism.

Lipophilicity (logD) = format: physicochemical
[1] = system: human monocyte-derived dendritic cells (MDDCs); test: Cytokine (TNF) production in human MDDCs, ELISA; format: cell-based; conditions: LPS 100 ng/ml, 3 hours
Experimental: Human blood samples were collected from healthy donors at the Blood Donor Center at Massachusetts General Hospital in compliance with all relevant ethical regulations and according to protocol 2018P001504 approved by the Mass General Brigham Institutional Review Board. Donors provided informed written consent. Human PBMCs were isolated by density gradient separation using Ficoll-Paque PLUS (VWR- GE Life Sciences, catalog no. 17144002), as previously described ([54]). Isolated PBMCs were incubated overnight in DMEM (10% FBS, 0.2% sodium bicarbonate, 1X Glutamax) at 37°C, 5% CO2. Human monocytes were isolated from an unpurified Buffy Coat using RosetteSep human monocyte enrichment cocktail (StemCell Technologies, 15068) and frozen same day in FBS with 10% DMSO. […]
Frozen human monocytes were thawed and allowed to recover overnight in DMEM [10% FBS, 1% p/s, IL-4 (50 ng/ml; Peprotech, 200-04), and GM-CSF (50 ng/ml; Peprotech, 300-03)] at 37°C and 5% CO2. […] Supernatants were collected and TNF production was measured by ELISA (Invitrogen, 88-7346-88). Plates were read on BMG Labtech PHERAstar FSX. […]

[2] = Solubility in phosphate buffer; format: physicochemical; conditions: read-out: solubility in phosphate buffer
[3] = system: WT HeLa cells expressing hGPR65; test: Cytotoxicity assay (CellTiter-Glo, 72 hours); format: cell-based, human
Experimental: WT HeLa cells expressing hGPR65 were seeded at 2000 cells per well in 384-well plates. Compounds were tested in 10-point dose, starting at 50 μM. Cells were incubated with compounds for 72 hours at 37°C, 5% CO2. Cytotoxicity was measured using CellTiter-Glo Luminescent Cell Viability Assay (Promega, G7572) according to the manufacturer’s protocol. Luminescence measurements were made on BMG Labtech PHERAstar FSX. Data analysis was performed using GraphPad Prism.

T1 sequence (P46093 whole entry): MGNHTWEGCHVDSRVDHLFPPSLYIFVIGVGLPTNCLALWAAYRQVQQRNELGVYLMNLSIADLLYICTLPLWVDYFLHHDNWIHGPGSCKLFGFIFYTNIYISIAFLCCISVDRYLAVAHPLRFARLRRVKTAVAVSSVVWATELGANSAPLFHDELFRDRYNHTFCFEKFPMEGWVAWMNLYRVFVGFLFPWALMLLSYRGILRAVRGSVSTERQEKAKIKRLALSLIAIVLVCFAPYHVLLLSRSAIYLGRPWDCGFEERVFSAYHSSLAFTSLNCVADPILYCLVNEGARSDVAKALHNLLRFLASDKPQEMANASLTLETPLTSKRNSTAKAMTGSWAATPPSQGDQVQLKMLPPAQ

SMILES: Cc1ccc(NC(=O)c2cnn3c(O)cc(-c4ccc(COC(C)C)cc4)nc23)nc1 [BRD5075, O=C(NC1=NC=C(C)C=C1)C2=C3N(N=C2)C(O)=CC(C4=CC=C(COC(C)C)C=C4)=N3]
- response in cells expressing hGPR4-SmBiT (hGPR4-SmBiT): failing to elicit responses
- logD (Lipophilicity (logD); pH 7.4, pH7.4, read-out: LogD (pH7.4)): 3.57
- logD (Lipophilicity (logD); read-out: lipophilicity (logD)): 3.57
- TNF secretion ([1]; 5 μM): did not reach statistical significance
- TNF secretion ([1]; 20 μM): further TNF suppression
- solubility [2]: 116 µM (≈ 48.4 µg/mL)
- cell viability ([3]; 50 μM, 72 hours): slight decrease in cell viability
- cytotoxicity ([3]; 72-hour incubation, 0-50 μM): not cytotoxic
